Source: patent US3973021A, “2-[2-(5-Nitro-2-furyl)vinyl]-4-(phydroxyanilino)quinazoline as a bactericide” (Diamond Shamrock Corporation, priority 1975, dated 1976)
Positions of bridges follow the written chain, without caps; N, C: chain ends. Non-standard residues stand in square brackets, D forms with d. Residues, ends and D or L forms follow the SMILES beside them. *: point of attachment. Ileψ(thiazoline)Cys = CC[C@H](C)[C@H](N)C1=N[C@H](C(=O)*)CS1; dOrn = NCCC[C@@H](N)C(=O)O

Tests used:
[1] = Example XI: 4 week chick feeding test, five replicates; assay type: in vivo, broiler cross chicks; details: for feed efficiency (in words) / growth rate (in words): Table V
Text: (§1) This example compares growth promotion activity of the product of Example I with other growth promotants at a concentration of 25 g/T in the Basal Ration described in Example VII. The other growth promotants include the product described in Example I of U.S. Pat. No. 3,542,784 -- Burch and quinoxaline-1,4-dioxide. Day old broiler cross chicks were weight equalized into groups of 8 chicks each, and four replicates of 8 chicks each were fed the experimental rations over a 4 week period.
The growth promotion tests described in Example X were repeated with the exception that fives replicates of 8 chicks each were fed the formulations described in Table V for four weeks.

[2] = Example VIII: 4 week chick feeding test at low levels; assay type: in vivo, broiler cross chicks
Text: (§2) Day old broiler cross chicks were weight equalized into groups of 8 chicks each and were placed in battery brooders. The 32 chick treatment groups (4 replicates) were fed one of the five rations described below for a four week period. Weekly measurements of body weights and feed consumption were made by replicate, and these measurements used to calculate weight gain and feed efficiency.
The basal ration was the basal ration used in Example VII above. The remaining five rations wer obtained by mixing the indicated quantities of bacitracin (4 g/T), chlortetracycline (10 g/T), product of Example I (10 g/T), and product of Example II of U.S. Pat. No. 3,542,784 -- Burch (10 g/T) as growth promotants with the basal ration.

[3] = Example VII: 4 week chick feeding test, weight gain and feed efficiency; assay type: in vivo, broiler cross chicks; details: analysis of variance; over Basal Ration + Bacitracin
Text: One hundred twenty day-old broiler cross chicks were weight equalized into 15 groups of 8 chicks each and placed in battery brooders. The 40 chick treatment groups (5 replicates) were fed the one of the three rations described below for a four week period. weekly measurements of body weights and feed consumption were made by replicate, and these measurements used to calculate weight gain and feed efficiency.
The commercial type broiler starter basal ration which was used in this study was designated as the Basal Ration, and had the following composition:
The preceding basal ration was mixed with bacitracin at a level of 4 g/T as the only growth stimulant to simulate commercial practice. This mixture was designated as the Basal Ration + Bacitracin (4 g/T) and constituted the negative control in this study.
A second ration was prepared by fortifying the Basal Ration + bacitracin described above with the Product from Example I above at a level of 200 g/T, and was designated as Basal Ration + Bacitracin + Product of Example I (200 g/T). A third ration was prepared by fortifying the Basal Ration + bacitracin described above with chlortetracycline (CTC) at a level of 200 g/T, and was designated as Basal Ration + Bacitracin + Chlortetracycline (200 g/T).
The term "growth promotion" is used herein to describe the beneficial effect of a compound in eliciting a more rapid of weight gain when compared to the weight gain of control animals not fed the compound. "Feed efficiency" is a term regularly used in animal husbandry and is a measure of the pounds of feed required to produce a pound of gain in the weight of the animal. A lower mathmatical value for feed efficiency reflects improved performance.

[4] = test system: S. faecalis, E. rhusiopathiae, B. bronchiseptica, S. agalactiae, Streptococcus group E and Vibrio coli; test: Bactericide test, comparison with chlortetracycline; assay type: cell-based; details: Table A
Text: Test formulations were examined for bactericidal and/or bacteriostatic activity against the test organisms shown in Tables A and B. These organisms were chosen as being representative of commercially important pathogens affecting animal agriculture. The antibiotic chlortetracycline was chosen as a positive control, since it has a broad spectrum of activity against a large number of organisms, and its activity can be used for comparative purposes.
Basic test formulations of the product of Examples I, II, III, and of chlortetracycline were prepared by dissolving 16 mg (0.016 g) in 2.0 ml of stock emulsifier solution (0.25% Triton X-155 in acetone by volume) and making each solution up to 50 ml with deionized water. The concentration of the test compound in the basic formulation was 320 ppm. Lower concentrations of the test compound were obtained by diluting the basic formulation with a 4% solution of the stock emulsifier in deionized water so that each dilution in the series differed only in test compound content.
Nutrient-tryptic soy agar (NTA) consisting of 2.0% Difco Bactoagar 0.8% nutrient broth (Difco), and 0.5% tryptic soy broth (Difco) was prepared and sterilized by autoclaving. A 2 ml aliquot of each test formulation was added to 8 ml of molten NTA. This mixture was then plated in a sterile polystyrene petri dish (100 × 15 mm). After the agar was set, suspensions of each of the test organisms were simultaneously streaked onto the surface of the agar. The inoculated plates were incubated for 48 hr. at 28°C. The inhibition of growth of each organism was rated by visual comparison with the organism developing on non-treated agar. Growth inhibition reported as percent control was rated in three categories as follows: 0% control, growth equivalent to that on non-treated agar; 50% control, sparse development and separated colonies; 100% control, no visible growth or development of colonies.

[5] = Example XII: 4 week chick feeding test, repeat with five replicates (Table VII); assay type: in vivo, broiler cross chicks; details: Table VII
[6] = Example XII: 4 week chick feeding test, first set (Table VI); assay type: in vivo, broiler cross chicks; details: Table VI
Text: as §1
The growth promotion tests described in Example X were repeated with the additional testing the products of Examples II and III.

[7] = Example X: 4 week chick feeding test, 25 g/T; assay type: in vivo, broiler cross chicks
Text: as §1

[8] = Example XIII: 6 week swine feeding test, growth rate and feed efficiency; assay type: in vivo, weanling pigs; details: Table VIII
Text: Thirty-six weanling pigs weighing approximately thirty pounds each in good physical condition and originating from a common source were used in these tests. The pigs were allocated into sex and weight equalized pens of six pigs each. A one week period was allowed for acclimatization before testing. Three replicates of six pigs were fed the basal ration described below, and three replicates were fed the same basal ration supplemented with 25 g/T of the product of Example I.
The basal ration was a 17% commercial corn-soya pelletized formulation which was free of antibiotic and drug components. Composition of the basal ration formulation was: […]
The rations were offered ad libitum from six bushel self-feeders with a continuous supply of fresh water. The same ration formulations were used throughout the six week feeding period. Individual pig weighing were made after 0,2,4 and 6 (termination) week periods. Feed consumption records were kept on a pen basis, with feed efficiency conversion being compiled at the end of the 2nd, 4th and 6th (termination) week of feeding. Complete morbidity and mortality records were kept.

[9] = Example IX: chick feeding test, titration dosage; assay type: in vivo, broiler cross chicks
Text: as §2
The concentrations used in this test were 6.25, 12.5, 25, 50, 100, 200 and 400 g of the Product of Example I per ton of the Basal Ration described in Example VII above. The same number and size chick treatment groups were used in this test as in Example VIII above.

Question: For `CC[C@H](C)[C@H](N)C1=N[C@H](C(=O)N[C@@H](CC(C)C)C(=O)N[C@H](CCC(=O)O)C(=O)N[C@H](C(=O)N[C@H]2CCCCNC(=O)[C@H](CC(N)=O)NC(=O)[C@@H](CC(=O)O)NC(=O)[C@H](Cc3cnc[nH]3)NC(=O)[C@@H](Cc3ccccc3)NC(=O)[C@H]([C@@H](C)CC)NC(=O)[C@@H](CCCN)NC2=O)[C@@H](C)CC)CS1` [Bacitracin] ({Ileψ(thiazoline)Cys}-L[dE]IK[dOrn]I[dF]H[dD]N; lactam 4-C), which “Improved Response Over Basal Ration: Feed Efficiency” value ([1]; 25g/T) is on record?
Answer: The value was “+3.1%”.

Question: What about the “Improved Response Over Basal Ration: Gain” value ([1]; 25g/T) of the same compound?
Answer: The value was “+1.2%”.

Question: What about the “feed efficiency (in words)” value [1] of the same compound?
Answer: Its value is “moderate improvements in feed efficiencies”.

Question: And the “growth rate (in words)” value [1]?
Answer: Its value is “slight improvements in growth rates”.

Question: What about the “Improved Response Over Basal Ration: Feed Efficiency” value ([2]; 4 g/T in Basal Ration) of the same compound?
Answer: The value was “+1.2%”.

Question: And the “Improved Response Over Basal Ration: Gain” value ([2]; 4 g/T in Basal Ration)?
Answer: The value was -2.3%.

Question: Which results are given for `CN(C)[C@@H]1C(O)=C(C(N)=O)C(=O)[C@@]2(O)C(O)=C3C(=O)c4c(O)ccc(Cl)c4[C@@](C)(O)[C@H]3C[C@@H]12` [Chlortetracycline, reference compound]?
Answer: statistical significance of improved feed efficiencies [3]: significant at the 99.9% level of probability; statistical significance of improved weight gains [3]: significant at the 99.5% level of probability; feed efficiency (in words) [1]: moderate improvements in feed efficiencies; growth rate (in words) [1]: slight improvements in growth rates

Question: Which results are given for `O=[N+]([O-])c1ccc(C=Cc2nc(Nc3ccc(O)cc3)c3ccccc3n2)o1` [Example I, 2-[2-(5-nitro-2-furyl)vinyl]-4-(p-hydroxyanilino)quinazoline]?
Answer: effectiveness relative to chlortetracycline (in words) [4]: considerably more effective; statistical significance of improved feed efficiencies [3]: significant at the 99.9% level of probability; statistical significance of improved weight gains [3]: significant at the 99.5% level of probability; combined effect with bacitracin (in words) ([1]; 25g/T + 25g/T bacitracin): synergistic effects; Improved Response Over Basal Ration: Feed Efficiency ([1]; 25g/T + Bacitracin (25g/T)): +7.5%; Improved Response Over Basal Ration: Gain ([1]; 25g/T + Bacitracin (25g/T)): +4.6%; feed efficiency (in words) [1]: substantial improvement in feed efficiency; growth rate (in words) [1]: moderate improvement in growth rate; growth promotion (in words) ([2]; Table II, compared with other growth promotants): greater growth promotion than any of the other growth promotants; growth rate / feed efficiency response (in words) [5]: moderate improvement in production parameters; growth rate / feed efficiency response (in words) [6]: moderate improvement in production parameters; Average 4 Week Performance: Feed Efficiency ([7]; 25g/T): 1.503; Improved Response Over Basal Ration: Feed Efficiency ([7]; 25g/T): +3.2%; Improved Response Over Basal Ration: Gain ([7]; 25g/T): +6.2%; growth rate and feed efficiency response (in words) ([7]; 25 g/T, Table IV): strongest response in growth rate and feed efficiency; feed efficiency (in words) [8]: enhanced feed efficiency; growth (in words) [8]: very substantial growth improvement; growth promotion (in words) ([9]; 12.5 g/T): noticeable growth promotion; weight gain and feed efficiency (in words) ([9]; 25 and 50 g/T): improvements in weight gain and feed efficiency; weight gain (in words) ([9]; 100 g/T): absence of weight gain improvement; improvement (in words) ([9]; 200 g/T): substantial improvements; optimum concentration ([9]; economics and efficacy): 25 g/T

Question: Which results are given for `O=[N+]([O-])c1ccc(C=Cc2nc(Nc3cccc(O)c3)c3ccccc3n2)o1` [Example II, 2-[2-(5-nitro-2-furyl)vinyl]-4-(m-hydroxyanilino)quinazoline]?
Answer: effectiveness relative to chlortetracycline (in words) [4]: considerably more effective; growth rate / feed efficiency response (in words) [6]: moderate improvements

Question: For `O=[N+]([O-])c1ccc(C=Cc2nc(Nc3ccccc3)c3ccccc3n2)o1` [Example IV, 2-[2-(5-nitro-2-furyl)vinyl]-4-anilinoquinazoline], which “effectiveness relative to chlortetracycline (in words)” value [4] is on record?
Answer: The value was “considerably more effective”.
